Measured values taken from patent publication US20100256104A1, “NOVEL AMIDE COMPOUNDS” (ASTRAZENECA R&D, priority 2009, published 2010).
pIC50: −log10 of the molar value.

These molecules were tested against T1, recombinant human GR (Homo sapiens, UniProt P04150) (assay: Human Glucocorticoid Receptor (GR) Assay, fluorescence polarization competition with GS Red tracer). Conditions: 2 hours at room temperature, 100% control 10 μM Dexamethasone, XLfit model 205, read-out: Inhibition of GR binding, IC50.
T1 construct: purchased Panvera/Invitrogen P2812 (kit P2893)
T1 sequence (P04150 1-777): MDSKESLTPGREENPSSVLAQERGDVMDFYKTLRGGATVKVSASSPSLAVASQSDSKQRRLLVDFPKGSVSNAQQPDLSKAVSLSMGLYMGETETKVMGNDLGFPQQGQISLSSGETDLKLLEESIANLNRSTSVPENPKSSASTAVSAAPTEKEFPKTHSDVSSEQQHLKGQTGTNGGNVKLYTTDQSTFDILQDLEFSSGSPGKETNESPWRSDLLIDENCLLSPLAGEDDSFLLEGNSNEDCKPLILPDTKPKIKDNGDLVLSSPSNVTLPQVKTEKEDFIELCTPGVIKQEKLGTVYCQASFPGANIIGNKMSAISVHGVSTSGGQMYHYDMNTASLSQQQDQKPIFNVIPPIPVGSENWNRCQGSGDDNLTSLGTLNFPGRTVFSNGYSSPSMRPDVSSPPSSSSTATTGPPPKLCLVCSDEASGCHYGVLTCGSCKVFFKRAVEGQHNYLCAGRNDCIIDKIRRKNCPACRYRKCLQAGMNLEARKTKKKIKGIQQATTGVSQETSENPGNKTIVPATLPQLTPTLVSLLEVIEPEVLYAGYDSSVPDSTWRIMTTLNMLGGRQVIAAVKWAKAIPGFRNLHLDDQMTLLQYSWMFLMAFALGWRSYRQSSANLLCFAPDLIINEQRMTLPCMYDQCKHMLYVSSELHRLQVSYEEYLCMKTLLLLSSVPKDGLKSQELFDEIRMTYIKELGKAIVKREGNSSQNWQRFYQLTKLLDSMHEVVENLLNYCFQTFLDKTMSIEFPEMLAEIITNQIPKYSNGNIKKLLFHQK
Method: Human Glucocorticoid Receptor (GR) Assay The assay is based on a commercial kit from Panvera/Invitrogen (Part number P2893). The assay technology is fluorescence polarization. The kit utilises recombinant human GR (Panvera, Part number P2812), a Fluoromone™ labelled tracer (GS Red, Panvera, Part number P2894) and a Stabilizing Peptide 10X (Panvera, Part number P2815). The GR and Stabilizing Peptide reagents are stored at −70° C. while the GS Red is stored at −20° C. Also included in the kit are 1M DTT (Panvera, Part number P2325, stored at −20° C.) and GR Screening buffer 10X (Panvera, Part number P2814, stored at −70° C. initially but once thawed stored at room temperature). Avoid repeated freeze/thaws for all reagents. The GR Screening buffer 10X comprises 100 mM potassium phosphate, 200 mM sodium molybdate, 1 mM EDTA and 20% DMSO. Test compounds (1 μL) and controls (1 μL) in 100% DMSO were added to black polystyrene 384-well plates (Greiner low volume black flat-bottom, part number 784076). 0% control was 100% DMSO and 100% control was 10 μM Dexamethasone. Background solution (8 μL; assay buffer 10X, Stabilizing Peptide, DTT and ice cold MQ water) was added to the background wells. GS Red solution (7 μL; assay buffer 10X, Stabilizing Peptide, DTT, GS Red and ice cold water) was added to all wells except background wells. GR solution (7 μL; assay buffer 10X, Stabilizing Peptide, DTT, GR and ice cold water) was added to all wells. The plate was sealed and incubated in a dark at room temperature for 2 hours. The plate was read in an Analyst plate reader (LJL Biosystems/Molecular Devices Corporation) or other similar plate reader capable of recording fluorescence polarization (excitation wavelength 530 nm, emission wavelength 590 nm and a dichroic mirror at 561 nm).
A pIC50 of 8.66 was found for `CCC(=O)O[C@]1(C(=O)SCF)CC[C@H]2[C@@H]3CCC4=Cc5c(cnn5-c5cccc(C(=O)NCC(N)=O)c5)C[C@]4(C)[C@@]3(F)[C@@H](O)C[C@@]21C` [Example 44, (1R,3aS,3bS,10aS, 10bR,11S,12aS)-7-{3-[(2-amino-2-oxoethyl)carbamoyl]phenyl}-10b-fluoro-1-{[(fluoromethyl)sulfanyl]carbonyl}-11-hydroxy-10a,12a-dimethyl-1,2,3,3a,3b,4,5,7,10, 10a,10b,11,12,12a-tetradecahydrocyclo-penta[5,6]naphtho [1,2-f]indazol-1-yl propanoate] in this work. A pIC50 of 8.48 was found for `COCC(=O)O[C@]1(C(=O)SCF)[C@H](C)C[C@H]2[C@@H]3CCC4=Cc5c(cnn5-c5cccc(C(=O)NCc6cccnc6)c5)C[C@]4(C)[C@@]3(F)[C@@H](O)C[C@@]21C` [Example 46, (1R,2R,3aS,3bS, 10aS,10bR,11S,12aS)-10b-fluoro-1-{[(fluoromethyl)sulfanyl]carbonyl}-11-hydroxy-2,10a,12a-trimethyl-7-{3-[(pyridin-3-ylmethyl)carbamoyl]phenyl}-1,2,3,3a,3b,4,5,7,10, 10a,10b,11,12,12a-tetradecahydrocyclo-penta[5,6]naphtho [1,2-f]indazol-1-yl methoxyacetate] in this work. A pIC50 of 9.04 was found for `COCCNC(=O)c1cccc(-n2ncc3c2C=C2CC[C@@H]4[C@H]([C@@H](O)C[C@@]5(C)[C@H]4CC[C@]5(OC(=O)C4CC4)C(=O)SCC#N)[C@@]2(C)C3)c1` [Example 4, (1R,3aS,3bS,10aR,10bS,11S,12aS)-1-{[(Cyanomethyl)sulfanyl]carbonyl}-11-hydroxy-7-{3-[(2-methoxyethyl)carbamoyl]phenyl}-10a,12a-dimethyl-1,2,3,3a,3b,4,5,7,10,10a,10b,11,12,12a-tetradecahydrocyclopenta[5,6]naphtho[1,2-f]indazol-1-yl cyclopropanecarboxylate] in this work. A pIC50 of 8.59 was found for `COCC(=O)O[C@]1(C(=O)SCF)[C@H](C)C[C@H]2[C@@H]3CCC4=Cc5c(cnn5-c5cccc(C(=O)N[C@H](C)C(N)=O)c5)C[C@]4(C)[C@@]3(F)[C@@H](O)C[C@@]21C` [Example 29, (1R,2R,3aS,3bS, 10aS,10bR,11S,12aS)-7-(3-{[(1R)-2-amino-1-methyl-2-oxoethyl]carbamoyl}phenyl)-10b-fluoro-1-{[(fluoromethyl)-sulfanyl]carbonyl}-11-hydroxy-2,10a,12a-trimethyl-1,2,3,3a,3b,4,5,7,10, 10a,10b,11,12,12a-tetradecahydrocyclo-penta[5,6]naphtho [1,2-f]indazol-1-yl methoxyacetate] in this work. A pIC50 of 9.33 was found for `CCNC(=O)c1cccc(-n2ncc3c2C=C2CC[C@H]4[C@@H]5C[C@@H](C)[C@](OC(=O)COC)(C(=O)SCF)[C@@]5(C)C[C@H](O)[C@]4(F)[C@@]2(C)C3)c1` [Example 27, (1R,2R,3aS,3bS, 10aS,10bR,11S,12aS)-7-[3-(ethylcarbamoyl)phenyl]-10b-fluoro-1-{[(fluoro-methyl)sulfanyl]-carbonyl}-11-hydroxy-2,10a,12a-trimethyl-1,2,3,3a, 3b,4,5,7,10,10a,- 10b,11,12,12a-tetradecahydrocyclo-penta[5,6]naphtho [1,2-f]indazol-1-yl methoxyacetate] in this work. A pIC50 of 8.62 was found for `C[C@]12Cc3cnn(-c4cccc(C(=O)NCc5cccnc5)c4)c3C=C1CC[C@@H]1[C@@H]2[C@@H](O)C[C@@]2(C)[C@H]1CC[C@]2(OC(=O)c1cocn1)C(=O)SCF` [Example 39, (1R,3aS,3bS,10aR, 10bS,11S,12aS)-1-{[(fluoromethyl)sulfanyl]carbonyl}-11-hydroxy-10a,12a-dimethyl-7-{3-[(pyridin-3-ylmethyl)carbamoyl]-phenyl}-1,2,3,3a,3b, 4,5,7,10,10a,- 10b,11,12,12a-tetradecahydro-cyclopenta[5,6]naphtho [1,2-f]indazol-1-yl 1,3-oxazole-4-carboxylate] in this work. A pIC50 of 8.60 was found for `CSC(=O)[C@@]1(OC(=O)C2CC2)CC[C@H]2[C@@H]3CCC4=Cc5c(cnn5-c5cccc(C(=O)N6CCC[C@@H]6C(N)=O)c5)C[C@]4(C)[C@@]3(F)[C@@H](O)C[C@@]21C` [Example 53, (1R,3aS,3bS,10aS,10bR,11S,12aS)-7-(3-{[(2R)-2-carbamoylpyrrolidin-1-yl]carbonyl}phenyl)-10b-fluoro-11-hydroxy-10a,12a-dimethyl-1-[(methylsulfanyl)carbonyl]-1,2,3,3a,3b,4,5,7,10,10a,10b,11,12,12a-tetradecahydrocyclopenta[5,6]naphtho[1,2-f]indazol-1-yl cyclopropanecarboxylate] in this work. A pIC50 of 8.55 was found for `CCC(=O)O[C@]1(C(=O)SCF)[C@H](C)C[C@H]2[C@@H]3CCC4=Cc5c(cnn5-c5cccc(C(=O)N[C@@H](C)C(N)=O)c5)C[C@]4(C)[C@@]3(F)[C@@H](O)C[C@@]21C` [Example 25, (1R,2R,3aS,3bS, 10aS,10bR,11S,12aS)-7-(3-{[(1S)-2-amino-1-methyl-2-oxoethyl]carbamoyl}phenyl)-10b-fluoro-1-{[(fluoromethyl)-sulfanyl]carbonyl}-11-hydroxy-2,10a,12a-trimethyl-1,2,3,3a,3b,4,5,7,10, 10a,10b,11,12,12a-tetradecahydrocyclo-penta[5,6]naphtho [1,2-f]indazol-1-yl propanoate] in this work. A pIC50 of 8.77 was found for `CCC(=O)O[C@]1(C(=O)SCC#N)CC[C@H]2[C@@H]3CCC4=Cc5c(cnn5-c5cccc(C(=O)NCCSC)c5)C[C@]4(C)[C@H]3[C@@H](O)C[C@@]21C` [Example 6, (1R,3aS,3bS,10aR,10bS,11S,12aS)-1-{[(Cyanomethyl)sulfanyl]carbonyl}-11-hydroxy-10a,12a-dimethyl-7-(3-{[2-(methylsulfanyl)ethyl]carbamoyl}phenyl)-1,2,3,3a,3b,4,5,7,10,10a,10b,11,12,12a-tetradecahydrocyclopenta[5,6]naphtho[1,2-f]indazol-1-yl propanoate] in this work. A pIC50 of 8.55 was found for `COCC(=O)O[C@]1(C(=O)SCC#N)CC[C@H]2[C@@H]3CCC4=Cc5c(cnn5-c5cccc(C(=O)NCC(N)=O)c5)C[C@]4(C)[C@H]3[C@@H](O)C[C@@]21C` [Example 51, (1R,3aS,3bS,10aR, 10bS,11S,12aS)-7-{3-[(2-amino-2-oxoethyl)carbamoyl]phenyl}-1-{[(cyanomethyl)sulfanyl]carbonyl}-11-hydroxy-10a,12a-dimethyl-1,2,3,3a,3b,4,5,7,10, 10a,10b,11,12,12a-tetradecahydrocyclo-penta[5,6]naphtho [1,2-f]indazol-1-yl methoxyacetate] in this work. A pIC50 of 8.15 was found for `CCC(=O)O[C@]1(C(=O)SCF)CC[C@H]2[C@@H]3C[C@H](C)C4=Cc5c(cnn5-c5cccc(C(=O)NCC(N)=O)c5)C[C@]4(C)[C@H]3[C@@H](O)C[C@@]21C` [Example 37, (1R,3aS,3bS,5S,10aR, 10bS,11S,12aS)-7-{3-[(2-amino-2-oxoethyl)carbamoyl]phenyl}-1-{[(fluoromethyl)sulfanyl]carbonyl}-11-hydroxy-5,10a, 12a-trimethyl-1,2,3,3a,3b,4,5,7,10, 10a,10b,11,12,12a-tetradecahydrocyclo-penta[5,6]naphtho [1,2-f]indazol-1-yl propanoate] in this work. A pIC50 of 9.09 was found for `CCC(=O)O[C@]1(C(=O)SCF)CC[C@H]2[C@@H]3CCC4=Cc5c(cnn5-c5cccc(C(=O)NCCOC)c5)C[C@]4(C)[C@H]3[C@@H](O)C[C@@]21C` [Example 2, (1R,3aS,3bS,10aR,10bS,11S,12aS)-1-{[(Fluoromethyl)sulfanyl]carbonyl}-11-hydroxy-7-{3-[(2-methoxyethyl)carbamoyl]phenyl}-10a,12a-dimethyl-1,2,3,3a,3b,4,5,7,10,10a,10b,11,12,12a-tetradecahydrocyclopenta[5,6]naphtho[1,2-f]indazol-1-yl propanoate] in this work.
